From US8674096B2, “Substituted imidazo[1,5-a]quinoxalin-4-ones as phosphodiesterase 9 inhibitors” (priority 2009, dated 2014)
pIC50: −log10 of the molar value.

Columns and labels:
[1] = molecular target: T1, PDE9 (Homo sapiens, UniProt O76083); experiment: PDE9-inhibiting activity (SPA, 3H-cGMP degradation); format: biochemical
T1 construct: made in house
Method: The PDE9 used in the present experiment was expressed/purified by the method as in, for example, Guipponi et al., and Fisher et., al. (Fisher, D. A., et al., J. Biol. Chem., 273: pp. 15559-15564 (1998), Guipponi, M., et al., Hum. Genet., 103: pp. 386-392 (1998)).
The PDE9-inhibiting activity was measured by the following method. That is, to a buffer solution containing tris(hydroxymethyl)aminomethane-hydrochloric acid (40 mM, pH 8.0), magnesium chloride (5 mM), and 2-mercaptoethanol (4 mM) were added cGMP (1 μM) and ^3H-cGMP (0.33 μCi/ml) to give a substrate buffer solution. A test substance solution and an enzyme solution which had been adjusted to an optimal concentration were added thereto to perform a reaction at 30° C. The enzyme reaction was stopped by the addition of Scintillation Proximity Assay (SPA) Beads (GE Healthcare, UK) containing 5 mM 3-isobutyl-1-methylxanthine (IBMX). For the enzyme activity, the amount of 5′-GMP, which is a reaction degradation product bound to SPA beads, was measured with a TopCount microplate reader (Hewlett Packard, USA).
The inhibitory rate was calculated by taking the radioactivity of the control containing no test substance as (A), taking the radioactivity of the blank containing no enzyme as (B), and taking the radioactivity of the test substance as (C), and using the following equation. Inhibitory rate=100−{(C)−(B)/(A)−(B)}×100(%)

T1 sequence (O76083 whole entry): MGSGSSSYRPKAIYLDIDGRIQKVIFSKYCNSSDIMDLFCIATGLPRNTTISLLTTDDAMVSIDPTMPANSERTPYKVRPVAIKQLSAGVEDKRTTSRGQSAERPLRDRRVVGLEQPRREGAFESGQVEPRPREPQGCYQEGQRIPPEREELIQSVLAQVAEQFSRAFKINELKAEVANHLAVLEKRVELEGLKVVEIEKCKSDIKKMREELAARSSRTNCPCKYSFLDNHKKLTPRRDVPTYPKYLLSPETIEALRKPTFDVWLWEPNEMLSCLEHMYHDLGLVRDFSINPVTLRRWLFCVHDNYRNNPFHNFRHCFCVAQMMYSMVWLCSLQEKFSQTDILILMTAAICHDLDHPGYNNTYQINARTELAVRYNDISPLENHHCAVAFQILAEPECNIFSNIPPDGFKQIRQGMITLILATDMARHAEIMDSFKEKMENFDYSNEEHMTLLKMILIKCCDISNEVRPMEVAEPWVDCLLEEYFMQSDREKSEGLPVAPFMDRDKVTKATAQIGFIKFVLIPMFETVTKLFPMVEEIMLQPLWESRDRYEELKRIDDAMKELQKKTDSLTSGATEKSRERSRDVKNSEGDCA

| SMILES | pIC50 [1] | melting point |
| --- | --- | --- |
| Cc1cc2c(cc1C(=O)N1CCc3cc(F)c(Cl)cc31)[nH]c(=O)c1nnc(C3CCCC3)n12.Cl [Example 248] | 8.24 | 276 to 278 °C |
| Cc1cc2c(cc1C(=O)N1CCc3cc(Cl)c(F)cc31)[nH]c(=O)c1nnc(C3CCCC3)n12 [Example 324] | 8.77 |  |
| O=C(c1ccc2c(c1)[nH]c(=O)c1nnc(-c3ccc(O)cc3)n12)N1CCc2c(Cl)cccc2C1 [Example 4, 7-[(5-chloro-3,4-dihydroisoquinolin-2(1H)-yl)carbonyl]-1-(4-hydroxyphenyl)[1,2,4]triazolo[4,3-a]quinoxalin-4(5H)-one] | 7.72 | 373 °C (dec.) |
| COc1cc2c(cc1C(=O)N1Cc3ccccc3C[C@@H]1CO)[nH]c(=O)c1cnc(C3CCCCC3)n12 [Example 220] | 7.74 | 215 °C (dec.) |
| COc1cc2c(cn1)N(C(=O)c1cc3[nH]c(=O)c4cnc(C5CCOCC5)n4c3cc1OC)CC2 [Example 277] | 7.80 | 237 °C (dec.) |
| Cc1cc2c(cc1C(=O)N1CCc3cc(Cl)ccc31)[nH]c(=O)c1cnc(C3CCOCC3)n12.Cl [Example 77] | 9.00 | 265 to 266 °C |
| Cc1cc2c(cc1C(=O)N1CCc3cc(Br)cnc31)[nH]c(=O)c1nnc(C3CCOCC3)n12 [Example 306] | 8.38 | 222 to 223 °C |
| COCc1cc2c(cc1C(=O)N1CCc3cc(Br)cnc31)[nH]c(=O)c1cnc(C3CCOCC3)n12.Cl [Example 320] | 9.00 | 310 °C (dec.) |
| Cc1cc2c(cc1C(=O)N1CCc3nc4ncccc4cc3C1)[nH]c(=O)c1cnc(C3CCOCC3)n12 [Example 71] | 8.04 |  |
| Cc1cc2c(cc1C(=O)N1CCc3cc(F)c(F)cc31)[nH]c(=O)c1nnc(C3CCCC3)n12.Cl [Example 289] | 8.41 | 210 to 212 °C (dec.) |
| Cc1cc2c(cc1C(=O)N1Cc3ccccc3C1)[nH]c(=O)c1cnc(C3CCOCC3)n12 [Example 27] | 7.74 | 312 °C (dec.) |
| Cc1cc2c(cc1C(=O)N1CCc3cc(Br)cnc31)[nH]c(=O)c1nnc(C3CC(F)(F)C3)n12 [Example 346] | 7.57 |  |
| COc1cc2c(cc1C(=O)N1Cc3ccccc3C1)[nH]c(=O)c1nnc(C3CCOCC3)n12.Cl [Example 338] | 7.55 | 228 °C (dec.) |
| Cc1cc2c(cc1C(=O)N1CC(C)(C)c3cc(Cl)ccc31)[nH]c(=O)c1cnc(C3CCOCC3)n12 [Example 516] | 9.10 |  |
| Cc1cc2c(cc1C(=O)N1CCc3cc(F)ccc31)[nH]c(=O)c1cnc(C3CCOCC3)n12.Cl [Example 76] | 8.60 | 297 to 298 °C |
| Cc1cc2c(cc1C(=O)N1CCc3cc(Cl)c(F)cc31)[nH]c(=O)c1cnc(C3CCOCC3)n12.Cl [Example 290] | 9.00 | 292 to 294 °C |
| Cc1cc2c(cc1C(=O)N1CCc3cc(F)cnc31)[nH]c(=O)c1cnc(C3CCOCC3)n12.Cl [Example 344] | 8.11 | 340 °C (dec.) |
| Cc1cc2c(cc1C(=O)N1CCc3cc(F)cnc31)[nH]c(=O)c1nnc(C3CCOCC3)n12 [Example 352] | 7.92 |  |
| CN(C)CCOc1cc2c(cc1C(=O)N1CCc3cc(F)ccc31)[nH]c(=O)c1cnc(C3CCOCC3)n12 [Example 309] | 8.39 | 216 to 219 °C (dec.) |
| Cc1cc2c(cc1C(=O)N1CCc3cc(F)ccc31)[nH]c(=O)c1nnc(C3CCC(F)(F)CC3)n12.Cl [Example 13, 1-(4,4-difluorocyclohexyl)-7-[(5-fluoro-2,3-dihydro-1H-indol-1-yl)carbonyl]-8-methyl[1,2,4]triazolo[4,3-a]quinoxalin-4(5H)-one hydrochloride] | 7.66 | 220 °C (dec.) |
| Cc1cc2c(cc1C(=O)N1CCc3cc(Cl)ccc31)[nH]c(=O)c1nnc(C(O)C3CC3)n12 (centres unmarked) [Example 359] | 8.27 | 260 to 262 °C (dec.) |
| Cc1cc2c(cc1C(=O)N1CCc3cc(S(=O)(=O)N(C)C)ccc31)[nH]c(=O)c1cnc(C3CCOCC3)n12.Cl [Example 80] | 8.59 | 209 to 212 °C |

| SMILES | pIC50 [1] | melting point |
| --- | --- | --- |
| COCc1cc2c(cc1C(=O)N1CCc3cc(Cl)ccc31)[nH]c(=O)c1nnc(C3CCOCC3)n12 [Example 347] | 8.48 | 198 to 201 °C |
| Cc1cc2c(cc1C(=O)N1CCc3cc(F)ccc31)[nH]c(=O)c1cnc(C3CCCOC3)n12 (centres unmarked) [Example 318] | 8.23 |  |
| CCCc1nnc2c(=O)[nH]c3cc(C(=O)N(C)Cc4cccc(Cl)c4)ccc3n12 [Example 134] | 6.02 |  |
| Cc1cc2c(cc1C(=O)N1CCc3ccccc3C1c1ccncc1)[nH]c(=O)c1nnc(-c3ccc(O)c(Cl)c3)n12 (centres unmarked) [Example 5, 1-(3-chloro-4-hydroxyphenyl)-8-methyl-7-[(1-pyridin-4-yl-3,4-dihydroisoquinolin-2(1H)-yl)carbonyl][1,2,4]triazolo[4,3-a]quinoxalin-4(5H)-one] | 8.64 |  |
| Cc1cc2c(cc1C(=O)N1CCc3cc(Cl)ccc31)[nH]c(=O)c1nnc(C3CCCC3)n12.Cl |  | 218 to 220 °C |
| CCCc1nnc2c(=O)[nH]c3cc(C(=O)N4CCN(c5ccccc5Cl)CC4)c(C)cc3n12 |  | 186 to 188 °C |
| Cc1cc2c(cc1C(=O)N1CCc3cc(Cl)ccc31)[nH]c(=O)c1ncc(C3CCCC3)n12.Cl |  | 279 °C (dec.) |
| Cc1cc2c(cc1C(=O)N1Cc3ccccc3C1)[nH]c(=O)c1nnc(C3CCOC3)n12.Cl (centres unmarked) |  | 223 to 224 °C |
| Cc1ccc2c(c1)CN(C(=O)c1cc3[nH]c(=O)c4cnc(C5CCOCC5)n4c3cc1C)C2 |  | 203 to 205 °C |
| Cc1cc2c(cc1C(=O)N1CCc3cc(C4CC4)cnc31)[nH]c(=O)c1nnc(C3CCCC3)n12 |  | 208 to 209 °C |
| Cc1cc2c(cc1C(=O)N1CCc3ccc(Cl)cc31)[nH]c(=O)c1cnc(C3CCOCC3)n12.Cl |  | 188 to 189 °C |
| Cc1cc2c(cc1C(=O)N1CCc3sccc3C1)[nH]c(=O)c1nnc(C3CCOCC3)n12.Cl |  | 216 to 219 °C |
| Cc1cc2c(cc1C(=O)N1CCCc3ccccc3C1)[nH]c(=O)c1cnc(C3CCOCC3)n12.Cl |  | 170 to 172 °C |
| Cc1cc2c(cc1C(=O)N1CCc3cccnc31)[nH]c(=O)c1c(C)nc(C3CCOCC3)n12 |  | 192 °C (dec.) |
| Cc1c(C(=O)N2CCc3cc(Cl)ccc32)ccc2c1[nH]c(=O)c1cnc(C3CCOCC3)n12 |  | 290 °C (dec.) |
| COc1cc2c(cc1C(=O)N1CCc3cc(C)cnc31)[nH]c(=O)c1cnc(C3CCOCC3)n12 |  | 288 °C (dec.) |
| Cc1cc2c(cc1C(=O)N1Cc3cccc(C)c3C1)[nH]c(=O)c1nnc(C3CCOC3)n12.Cl (centres unmarked) |  | 311 °C (dec.) |
| Cc1cc2c(cc1C(=O)N1CCc3cc(C4CC4)cnc31)[nH]c(=O)c1nnc(C3CCOCC3)n12 |  | 210 to 212 °C |
| Cc1cc2c(cc1C(=O)N1Cc3cccc(C)c3C1)[nH]c(=O)c1nnc(C3CCOCC3)n12 |  | 262 to 263 °C |
| COc1cc2c(cc1C(=O)N1Cc3ccccc3C1)[nH]c(=O)c1cnc(C3CCCCC3)n12.Cl |  | 299 to 303 °C |
| Cc1cc2c(cc1C(=O)N1Cc3cccc(C4CC4)c3C1)[nH]c(=O)c1cnc(C3CCOCC3)n12.Cl |  | 286 °C (dec.) |
| COCc1cc2c(cc1C(=O)N1CCc3cc(F)c(F)cc31)[nH]c(=O)c1nnc(C3(C)CCOCC3)n12.Cl |  | 195 to 198 °C |
